The text below walks through data of patent US8669243B2, “Steroid-derived cyclopamine analogs and methods for using the same in the prevention or treatment of cancer” (The Wistar Institute, priority 2007, dated 2014).

“Also recorded” adds a separate entry of the source.

Type in all cases: cell-based
Experiment [1] concerns SHH-induced GLI-luciferase activity in SHH-Light2 cells. The experiment in a line: SHH-Light2 GLI-dependent firefly luciferase reporter assay. The protocol:
Shh-Light2 cells were seeded at 70% confluency in 24 wells, 24 hours prior to treatment. They were then cultured for an additional 48 hours in standard serum-containing media prior to analysis. GLI-binding site luciferase activities were measured using the luciferase reporter assay system with the luciferase kit (PROMEGA).
SHH-light2 cells were treated with SHH (600 ng/ml, R&D) alone or in combination with cyclopamine (CYC), analog 33 or analog 37. CYC, analog 33 and analog 37 were used at […].
One screen involved examining the activation of the SHH pathway using the well-established cell line, SHH-Light2 cells. This cell line is a 3T3 clone that stably expresses a GLI-dependant firefly luciferase (Taipale, et al. (2000) Nature 406:1005-1009). […] Concentrations of each analog, ranging from 20 μM to 2.5 μM, were tested. SHH-Light2 cells were seeded 24 hours prior to treatment. They were then cultured for an additional 48 hours in standard serum-containing media prior to analysis. GLI-binding site luciferase activities were measured using a commercially available luciferase reporter assay system.
The activity of analogs 33 and 37 on the SHH signaling pathway was analyzed using the SHH-Light2 cells described herein.
For orientation: A reporter such as luciferase makes a cellular process visible.

Experiment [2] deals with granule neuron precursors (GNPs) purified from postnatal mouse cerebella. The experiment in a line: SHH-induced granule neuron precursor (GNP) proliferation, BrdU incorporation. Further details: inhibition of SHH-induced GNP proliferation (percentage BrdU positive): dose or concentration left out as unconfirmed. Conditions: for inhibition of SHH-induced GNP proliferation (BrdU-positive cells): 10 μM, SHH 600 ng/ml, FIG. 2; for inhibition of SHH-induced GNP proliferation (percentage BrdU positive): BrdU 6 hours before fixation, FIG. 5. The protocol: Purified GNPs were either not treated (CTR, n=4) or treated with SHH (600 ng/ml (n=4), alone or in combination with cyclopamine (10 μM, n=4), tomatidine (10 μM, n=4), analog 18 (10 μM, n=4) or estrone 15 (10 μM, n=2). BrdU-positive cells were counted with a fluorescent microscope using a 20× objective, wherein at least ten independent fields for each culture condition were counted per culture condition.
It has previously been shown that SHH is a potent mitogen for granule neuron precursors (GNPs) purified from postnatal mouse cerebella (Dahmane & Ruiz I Altaba (1999) Development 126:3089-3200). This well-established system was used to test the instant steroid-derived cyclopamine analogs for their activity in inhibiting this proliferative response of GNPs to SHH. […] GNPs were purified from postnatal day 5 (P5) mouse cerebella, plated on poly-D-lysine in serum-free DMEM-F12 and treated with either SHH alone or SHH plus the analogs. Treatment with SHH and cyclopamine was used as a control for inhibition.
GNPs were purified from postnatal day 5 (P5) mouse cerebella and treated with either SHH alone, or SHH in combination with cyclopamine, analog 33, or analog 37, each used at […]. BrdU was added to the media 6 hours before fixation. Percentage of brdU positive was determined following counting with a fluorescence microscope using a 20× objective (AXIOSKOP, ZEISS). At least five independent fields for each culture condition were counted. The analysis was performed on three independent experiments. Statistical analysis was performed with the Student t test.
A general note: Dividing cells build labelled thymidine or BrdU into new DNA.

The subject of experiment [3] is human medulloblastoma DAOY cells. Description: DAOY cell survival, colorimetric MTT assay. To be noted: 72 hours treatment; FIG. 6. The protocol:
DAOY cells were treated for 72 hours with either cyclopamine (CYC), analog 33 or analog 37 before cell survival was assayed with a colorimetric MTT assay. Absorbance at 570 nm is directly proportional to the number of living cells.
Abnormal activation of the SHH signaling pathway has been linked to various cancers including medulloblastoma, a malignancy of the cerebellum with the highest incidence of all human pediatric malignant brain tumors. A subset of these tumors is thought to arise from deregulation of GNP development in the cerebellum and require SHH signaling for their growth. It was therefore tested whether analogs 33 and 37 were also efficient in reducing the viability of medulloblastoma cells using human medulloblastoma DAOY cells.
On the technique in general: Formazan colour is commonly taken as a measure of viable cells.

`C[C@]12CC[C@@H]3c4ccc(O)cc4CC[C@H]3[C@@H]1CC[C@@]21Cc2ncccc2O1` [compound 18]: the “inhibition of SHH-induced activation of GLI-dependant firefly luciferase” value in experiment [1] (2.5 μM, recombinant SHH (200 ng), FIG. 1C) is “inhibited SHH activity comparable to cyclopamine”; in experiment [1] (5 μM, recombinant SHH (200 ng), FIG. 1B), “inhibited SHH activity comparable to cyclopamine”; in experiment [1] (10 μM, recombinant SHH (200 ng), FIG. 1A) it was “effectively inhibited SHH activity”. Besides, the “inhibition of SHH-induced GNP proliferation (BrdU-positive cells)” value (“inhibition … (BrdU-positive cells)” for short) in experiment [2] is “as potent as cyclopamine”.
As for `C[C@]12CC[C@@H]3c4ccc(O)cc4CC[C@H]3[C@@H]1CC[C@@]21C[C@@H]([C@H]2CCCN2)O1` [compound 37], the “inhibition of SHH signaling activity (GLI-luciferase)” value in experiment [1] (SHH 600 ng/ml, FIG. 4) is listed as “strong inhibition of SHH signaling activity comparable to that of cyclopamine”. The “inhibition of SHH-induced GNP proliferation (percentage BrdU positive)” value in experiment [2] is recorded as “as potent as cyclopamine; also recorded: blocked”. Besides, the “cell survival / viability of DAOY cells (absorbance at 570 nm)” value in experiment [3] is “significant decrease of cell survival; also recorded: active in reducing DAOY cells viability”.
`CC1=C2C[C@H]3[C@@H](CC=C4C[C@@H](O)CC[C@@]43C)[C@@H]2CC[C@]12O[C@@H]1C[C@H](C)CN[C@H]1[C@H]2C` [cyclopamine]: the “inhibition of SHH-induced reporter activity” value in experiment [1] (5 μM, recombinant SHH (200 ng), 48 hours, FIGS. 3 and 4) is given as “largely blocked”. For the same compound, in experiment [2], the “inhibition … (BrdU-positive cells)” value is recorded as “significantly decreased cell proliferation” and the “inhibition of SHH-induced GNP proliferation (percentage BrdU positive)” value is reported as “blocked”. Besides, in experiment [3], the “cell survival / viability of DAOY cells (absorbance at 570 nm)” value is reported as “significant decrease of cell survival”.
Regarding `C[C@H]1CC[C@]2(NC1)O[C@H]1C[C@H]3[C@@H]4CC[C@H]5C[C@@H](O)CC[C@]5(C)[C@H]4CC[C@]3(C)[C@H]1[C@@H]2C` [tomatidine, reference compound], the “inhibition … (BrdU-positive cells)” value in experiment [2] was “had no effect”.
